Experimental data: paper PMC9675441 (JCI Insight, 2022)

Molecular target: T1, ISG20L2 (interferon-stimulated 20 kDa exonuclease-like 2) (Homo sapiens, UniProt Q9H9L3)
T1 construct: recombinant human ISG20L2 (rISG)
T1 sequence (Q9H9L3 1-353): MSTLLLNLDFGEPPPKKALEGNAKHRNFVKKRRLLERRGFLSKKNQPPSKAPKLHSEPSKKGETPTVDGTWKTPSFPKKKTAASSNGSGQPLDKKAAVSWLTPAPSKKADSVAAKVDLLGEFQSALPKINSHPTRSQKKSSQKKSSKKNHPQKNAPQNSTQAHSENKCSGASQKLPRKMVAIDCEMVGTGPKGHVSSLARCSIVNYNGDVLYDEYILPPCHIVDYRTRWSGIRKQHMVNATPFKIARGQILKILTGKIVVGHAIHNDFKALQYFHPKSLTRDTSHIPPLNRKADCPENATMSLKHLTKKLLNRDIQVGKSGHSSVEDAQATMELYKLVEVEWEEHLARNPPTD
Test: SPR (Biacore X100, ISG20L2 immobilized on CM5 chip)
Type: binding

Structure (SMILES)	Kd [µM]
CC(C)C[C@H](NC(=O)[C@H](Cc1ccccc1)NC(=O)c1cnccn1)B(O)O [BTZ, bortezomib]	26.7
CC(C)C[C@H](NC(=O)[C@H](CCc1ccccc1)NC(=O)CN1CCOCC1)C(=O)N[C@@H](Cc1ccccc1)C(=O)N[C@@H](CC(C)C)C(=O)[C@@]1(C)CO1 [CFZ, carfilzomib]	8.71
